# Data from patent US4239747A, “Dicarboxylic acid bis(3,5-dicarbamoyl-2,4,6-triiodoanilides) useful as x-ray contrast agents” (Schering Aktiengesellschaft, priority 1976, dated 1980).
# Like-named read-outs stand apart in the source and are kept apart here.
# Legend:
# [1] = Osmotic pressure and osmolality of solutions of identical iodine concentration (300 mg. Iodine/ml.); format: physicochemical; details: at 37° C.
# Description: The novel compounds are distinguished from other compounds by a lower diffusibility on account of their size.
# Concentration, Osmotic Pressure, and Osmolality of Solutions of Identical
# [2] = Protein binding, human plasma (ultrafiltration method); format: in vitro ADME; details: human, plasma
# Protocol: (§1) Binding of contrast media to proteins of human plasma was determined at a final plasma concentration of 1.2 mg. iodine/ml. using the ultrafiltration method. The novel, nonionic dimer E was bound only to a very minor extent of 1.4±2.4%.
# mice [3] = assay: Compatibility after intravenous injection in mice; format: in vivo
# erythrocytes = assay: Effect of the contrast media on erythrocyte morphology; details: 43 mg. Iodine/ml. Blood; score 0 (intact) to 5 (highest damage)
# Protocol: Contrast medium solutions containing 300 mg. iodine/ml. were mixed in a ratio of 1:6 with heparinized blood. The final concentration of the contrast media was 43 mg. iodine/ml. The evaluation criterion was the change of the natural shape of the erythrocytes via echinocytes to spherocytes.
# Solubility in water = format: physicochemical; details: for solubility: water
# mice [4] = assay: Compatibility after intravenous injection in mice; format: in vivo; details: for Mortality/survival after intravenous injection: 6-10 mice, 10 g. iodine/kg, 300 mg. iodine/ml., 0.8 ml./min.
# Protocol: 1. Compatibility After Intravenous Injection
# Each of 6-10 mice weighing 20-22 g. was injected intravenously with the contrast medium being tested in the form of a solution at a concentration of 300 mg. of iodine/ml., a dosage of 10 g. iodine/kg. and an injection rate of 0.8 ml./min. Ionic agents were given as meglumine salts.
# [5] = background statement; cited from earlier work
# [6] = background statement; cited from earlier work; remark: listed apart in the source
# proteins of human plasma = assay: Protein binding, human plasma (ultrafiltration method); format: in vitro ADME; details: n = 6; 1.2 mg. Iodine/ml.; ultrafiltration
# Protocol: as §1
# rats = format: in vivo; details: 10 rats; 50 mg. iodine/ml.; 0.4 ml./kg.
# Protocol: In a further evaluation according to Valzelli, "A Simple Method to Inject Drugs Intracerebrally;" Med. Exp. Vol. 11: 23-26, (1964), each of 10 rats (90-110 g.) were injected intracerebrally with contrast medium solutions of compounds A-E at an iodine concentration of 50 mg./ml. in a dosage of 0.4 ml./kg. Toxic effects of compounds A-D included grave anomalies in posture (attitude), torsional spasms, excitation, and death.
# [7] = n = 6, 1.2 mg. Iodine/ml., ultrafiltration, read-out: Protein Binding Human Plasma (converted)
SMILES,Osmolality [1] [mOsm/kg . H2 O],Osmotic Pressure [1] [at.],"fraction unbound [2, 7]","Compatibility After i.v. Injection in Mice, LD50 (mice [3]) [g. Iodine/kg.]","Effect on Erythrocyte Morphology, Damage Index (erythrocytes)",solubility (Solubility in water) [mg/mL],further results
CC(=O)Nc1c(I)c(NC(C)=O)c(I)c(C(=O)O)c1I [Meglumine Amidotrizoate],1520,38.6,0.968,6.5,2.57,,
"CN(CC(O)CO)C(=O)c1c(I)c(NC(=O)COCCOCC(=O)Nc2c(I)c(C(=O)N(C)CC(O)CO)c(I)c(C(=O)N(C)CC(O)CO)c2I)c(I)c(C(=O)N(C)CC(O)CO)c1I (stereo not drawn) [Example 12, 3,6-Dioxasuberic Acid bis[3,5-bis(2,3-Dihydroxypropyl-N-methylcarbamoyl)-2,4,6-triiodoanilide]]",216,5.5,,22,0.13,,
"CN(CC(O)CO)C(=O)c1c(I)c(C(=O)N(C)CC(O)CO)c(I)c(N(C)C(=O)CC(=O)N(C)c2c(I)c(C(=O)N(C)CC(O)CO)c(I)c(C(=O)N(C)CC(O)CO)c2I)c1I (stereo not drawn) [Example 9, Malonic Acid bis[3,5-bis(2,3-Dihydroxypropyl-N-methylcarbamoyl)-2,4,6-triiodo-N-methylanilide]]",197,5.0,,,,,Solubility in water (Solubility in water): more than 60 g./150 ml. of solution
"CN(CC(O)CO)C(=O)c1c(I)c(NC(=O)CCCCC(=O)Nc2c(I)c(C(=O)N(C)CC(O)CO)c(I)c(C(=O)N(C)CC(O)CO)c2I)c(I)c(C(=O)N(C)CC(O)CO)c1I (stereo not drawn) [Example 10, Adipic Acid bis[3,5-bis(2,3-Dihydroxypropyl-N-methylcarbamoyl)-2,4,6-triiodoanilide]]",,,,,0.11,130,"Compatibility After i.v. Injection in Mice, LD50 (mice [4]; i.v., mice, determined with supersaturated solution): 30 g. Iodine/kg.; Solubility behaviour in words (Solubility in water): yields supersaturated solutions"
"CN(CC(O)CO)C(=O)c1c(I)c(C(=O)N(C)CC(O)CO)c(I)c(N(C)C(=O)COCC(=O)N(C)c2c(I)c(C(=O)N(C)CC(O)CO)c(I)c(C(=O)N(C)CC(O)CO)c2I)c1I (stereo not drawn) [Example 8, Oxaglutaric Acid bis[3,5-bis(2,3-Dihydroxypropyl-N-methylcarbamoyl)-2,4,6-triiodo-N-methylanilide]]",,,,10,0.09,> 600,
CNC(=O)c1c(I)c(NC(=O)CCCCC(=O)Nc2c(I)c(C(=O)O)c(I)c(C(=O)NC)c2I)c(I)c(C(=O)O)c1I [Meglumine Iocarmate],1260,32.0,0.908,6.5,1.37,,"Resulting concentration in the urine [5]: relatively high resulting concentration in the urine; Osmotic pressure, relative [6]: somewhat lower osmotic pressure"
CNC(=O)c1c(I)c(NC(C)=O)c(I)c(C(=O)O)c1I [Meglumine Iothalamate],1650,41.9,,6.5,,,fraction unbound [2]: 0.948
"CN(CC(O)CO)C(=O)c1c(I)c(NC(=O)C(=O)Nc2c(I)c(C(=O)N(C)CC(O)CO)c(I)c(C(=O)N(C)CC(O)CO)c2I)c(I)c(C(=O)N(C)CC(O)CO)c1I (stereo not drawn) [Example 1, oxalic acid bis[3,5-bis(2,3-dihydroxypropyl-N-methylcarbamoyl)-2,4,6-triiodoanilide]]",175,4.5,0.986,20,0.33,,Mortality/survival after intravenous injection (mice [4]): All mice survived; Protein Binding Human Plasma (proteins of human plasma): 1.4±2.4%; Toxic effects after intracerebral injection (rats): caused none of these effects in any of the animals; solubility (Solubility in water; room temperature): > 600 mg/mL
"CC(=O)Nc1c(I)c(C(=O)N[C@H]2C(O)O[C@H](CO)[C@@H](O)[C@@H]2O)c(I)c(N(C)C(C)=O)c1I (stereo partly drawn) [Metrizamide, 2-(3-acetamido-5-N-methylacetamido-2,4,6-triiodobenzamido)-2-deoxy-D-glucose]",485,12.3,,14,,,Mortality/survival after intravenous injection (mice [4]): one animal died; fraction unbound [2]: 0.938
"O=C(CCCCC(=O)Nc1c(I)c(C(=O)NC(CO)CO)c(I)c(C(=O)NC(CO)CO)c1I)Nc1c(I)c(C(=O)NC(CO)CO)c(I)c(C(=O)NC(CO)CO)c1I [Example 11, Adipic Acid bis[3,5-bis(1,3-Dihydroxyisopropylcarbamoyl)-2,4,6-triiodoanilide]]",,,,,,< 1,
